Results reported in publication PMC7827406, “Structure–Activity Relationship (SAR) Study of Spautin-1 to Entail the Discovery of Novel NEK4 Inhibitors” (International Journal of Molecular Sciences, 2021).
Read-outs that look alike come from different tables or passages of the source.

How the values were obtained:
Test in all cases: biochemical
Design in all cases: Eurofins KinaseProfiler full panel at Km ATP, residual kinase activity (%) relative to DMSO
B-Raf(h) = molecular target: T1, B-Raf(h) (Homo sapiens, UniProt P15056)
T1 construct: gene BRAF
T1 sequence (P15056 whole entry): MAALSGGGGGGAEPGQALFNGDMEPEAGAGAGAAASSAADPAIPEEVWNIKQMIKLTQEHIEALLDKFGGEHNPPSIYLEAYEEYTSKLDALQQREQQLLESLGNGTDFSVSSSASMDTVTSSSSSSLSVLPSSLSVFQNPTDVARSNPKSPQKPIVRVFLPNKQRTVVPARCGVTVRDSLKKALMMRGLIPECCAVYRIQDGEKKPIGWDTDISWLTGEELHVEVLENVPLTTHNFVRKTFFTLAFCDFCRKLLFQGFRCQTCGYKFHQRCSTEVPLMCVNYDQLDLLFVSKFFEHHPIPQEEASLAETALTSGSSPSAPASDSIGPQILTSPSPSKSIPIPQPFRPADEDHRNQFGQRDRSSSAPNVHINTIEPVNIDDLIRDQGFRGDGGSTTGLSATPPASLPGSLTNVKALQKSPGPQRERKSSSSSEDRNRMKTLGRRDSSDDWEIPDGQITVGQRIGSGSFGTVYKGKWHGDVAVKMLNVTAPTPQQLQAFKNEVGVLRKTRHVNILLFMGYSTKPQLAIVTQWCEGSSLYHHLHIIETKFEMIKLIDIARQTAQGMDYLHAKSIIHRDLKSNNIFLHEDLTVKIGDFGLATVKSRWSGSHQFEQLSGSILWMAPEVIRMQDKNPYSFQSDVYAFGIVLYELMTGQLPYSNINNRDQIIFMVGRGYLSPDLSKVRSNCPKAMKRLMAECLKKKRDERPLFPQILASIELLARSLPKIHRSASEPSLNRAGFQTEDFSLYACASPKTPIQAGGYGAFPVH
Procedure, shortened: (§1)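 Two 10 µM single-concentration screens were run: a competition-binding screen, in which DNA-tagged kinase bound to immobilized ligands was quantified by qPCR, and a radiometric activity panel at Km ATP. Each is expressed as residual kinase activity (%).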

EphA2(h) = EphA2(h) (Homo sapiens, UniProt P29317)
Procedure, shortened: as §1

Fyn(h) = Fyn(h) (Homo sapiens, UniProt P06241)
Fyn(h), sequence (P06241 whole entry): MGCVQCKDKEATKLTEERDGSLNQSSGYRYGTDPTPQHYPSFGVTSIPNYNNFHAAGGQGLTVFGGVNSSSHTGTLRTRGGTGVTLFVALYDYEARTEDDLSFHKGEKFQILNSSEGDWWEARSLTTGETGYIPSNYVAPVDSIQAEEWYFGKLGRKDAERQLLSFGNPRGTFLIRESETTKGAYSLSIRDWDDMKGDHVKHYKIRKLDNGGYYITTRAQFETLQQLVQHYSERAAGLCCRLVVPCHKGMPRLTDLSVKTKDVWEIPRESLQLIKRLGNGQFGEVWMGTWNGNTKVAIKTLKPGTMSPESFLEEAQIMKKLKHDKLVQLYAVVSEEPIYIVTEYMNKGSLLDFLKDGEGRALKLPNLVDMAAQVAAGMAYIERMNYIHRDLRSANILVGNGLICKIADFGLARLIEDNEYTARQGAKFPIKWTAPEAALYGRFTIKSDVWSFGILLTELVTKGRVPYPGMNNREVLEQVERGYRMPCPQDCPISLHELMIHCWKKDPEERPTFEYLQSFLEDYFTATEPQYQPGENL
Procedure, shortened: as §1

PTK5(h) = molecular target: T2, PTK5(h) (Homo sapiens, UniProt P42685)
T2 construct: gene FRK
T2 sequence (P42685 whole entry): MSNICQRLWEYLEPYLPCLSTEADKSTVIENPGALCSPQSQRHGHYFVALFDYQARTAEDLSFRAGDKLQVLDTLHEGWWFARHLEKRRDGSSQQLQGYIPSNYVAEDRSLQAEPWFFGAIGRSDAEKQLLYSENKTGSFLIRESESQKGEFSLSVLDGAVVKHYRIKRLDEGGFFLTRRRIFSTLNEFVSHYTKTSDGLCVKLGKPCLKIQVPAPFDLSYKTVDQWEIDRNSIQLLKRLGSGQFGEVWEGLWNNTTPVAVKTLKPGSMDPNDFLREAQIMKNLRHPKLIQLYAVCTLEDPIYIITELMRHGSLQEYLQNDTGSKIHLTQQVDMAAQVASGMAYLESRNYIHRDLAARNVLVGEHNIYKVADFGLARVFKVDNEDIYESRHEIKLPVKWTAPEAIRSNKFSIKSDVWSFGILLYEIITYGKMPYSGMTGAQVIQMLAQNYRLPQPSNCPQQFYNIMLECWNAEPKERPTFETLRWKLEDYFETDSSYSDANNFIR
Procedure, shortened: as §1

CDK7/cyclinH/MAT1(h) = CDK7/cyclinH/MAT1(h) (Homo sapiens, UniProt P50613)
CDK7/cyclinH/MAT1(h), sequence (P50613 whole entry): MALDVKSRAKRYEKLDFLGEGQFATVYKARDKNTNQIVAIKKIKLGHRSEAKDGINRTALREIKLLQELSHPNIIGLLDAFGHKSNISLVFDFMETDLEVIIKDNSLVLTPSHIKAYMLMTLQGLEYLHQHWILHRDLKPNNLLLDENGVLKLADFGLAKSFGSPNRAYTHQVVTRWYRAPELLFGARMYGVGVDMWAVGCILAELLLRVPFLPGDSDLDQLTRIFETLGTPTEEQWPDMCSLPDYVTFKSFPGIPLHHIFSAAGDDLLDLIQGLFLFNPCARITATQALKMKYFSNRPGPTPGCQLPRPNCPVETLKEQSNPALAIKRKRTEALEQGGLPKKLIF
CDK7/cyclinH/MAT1(h), sequence (P51946 whole entry partner): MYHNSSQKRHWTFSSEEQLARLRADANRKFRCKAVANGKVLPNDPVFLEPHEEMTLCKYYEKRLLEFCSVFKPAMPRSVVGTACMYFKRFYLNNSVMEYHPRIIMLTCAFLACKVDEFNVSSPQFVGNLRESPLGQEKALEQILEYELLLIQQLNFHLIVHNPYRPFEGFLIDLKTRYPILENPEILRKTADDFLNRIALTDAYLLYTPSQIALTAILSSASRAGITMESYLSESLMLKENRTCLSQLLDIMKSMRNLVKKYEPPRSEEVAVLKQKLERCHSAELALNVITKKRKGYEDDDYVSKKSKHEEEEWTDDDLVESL
CDK7/cyclinH/MAT1(h), sequence (P51948 whole entry partner): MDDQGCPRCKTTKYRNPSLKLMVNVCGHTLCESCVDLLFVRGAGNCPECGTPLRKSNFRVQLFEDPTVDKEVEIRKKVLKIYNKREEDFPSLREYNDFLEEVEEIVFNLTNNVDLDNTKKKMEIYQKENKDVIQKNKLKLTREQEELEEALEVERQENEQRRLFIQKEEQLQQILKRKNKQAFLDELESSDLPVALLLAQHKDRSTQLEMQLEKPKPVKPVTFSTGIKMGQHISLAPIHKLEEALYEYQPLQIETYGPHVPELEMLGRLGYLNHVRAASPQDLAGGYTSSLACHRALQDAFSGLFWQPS
Procedure, shortened: as §1

RIPK1(h) = molecular target: T3, RIPK1(h) (Homo sapiens, UniProt Q13546)
T3 sequence (Q13546 1-671): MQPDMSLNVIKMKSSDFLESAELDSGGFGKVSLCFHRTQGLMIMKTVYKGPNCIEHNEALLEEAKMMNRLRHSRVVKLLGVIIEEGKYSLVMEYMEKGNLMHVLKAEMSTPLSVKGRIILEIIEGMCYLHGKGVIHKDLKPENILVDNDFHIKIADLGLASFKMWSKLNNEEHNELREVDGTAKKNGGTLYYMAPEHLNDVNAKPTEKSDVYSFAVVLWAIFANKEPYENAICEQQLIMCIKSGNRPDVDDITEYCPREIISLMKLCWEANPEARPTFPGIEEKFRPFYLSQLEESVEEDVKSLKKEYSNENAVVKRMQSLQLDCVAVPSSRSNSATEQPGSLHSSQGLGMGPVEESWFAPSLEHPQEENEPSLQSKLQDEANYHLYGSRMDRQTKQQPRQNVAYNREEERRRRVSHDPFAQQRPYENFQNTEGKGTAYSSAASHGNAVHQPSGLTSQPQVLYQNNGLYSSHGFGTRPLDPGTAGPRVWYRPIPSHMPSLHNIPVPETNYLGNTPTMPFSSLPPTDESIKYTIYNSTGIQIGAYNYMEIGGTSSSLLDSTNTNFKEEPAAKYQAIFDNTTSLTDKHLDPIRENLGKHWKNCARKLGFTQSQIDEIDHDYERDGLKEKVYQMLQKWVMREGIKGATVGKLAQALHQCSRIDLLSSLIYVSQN
Procedure, shortened: as §1

IGF-1R(h), activated = molecular target: T4, IGF-1R(h), activated (Homo sapiens, UniProt P08069)
T4 construct: gene IGF1R
Procedure, shortened: as §1

MuSK(h) = molecular target: T5, MuSK(h) (Homo sapiens, UniProt O15146)
T5 sequence (O15146 1-869): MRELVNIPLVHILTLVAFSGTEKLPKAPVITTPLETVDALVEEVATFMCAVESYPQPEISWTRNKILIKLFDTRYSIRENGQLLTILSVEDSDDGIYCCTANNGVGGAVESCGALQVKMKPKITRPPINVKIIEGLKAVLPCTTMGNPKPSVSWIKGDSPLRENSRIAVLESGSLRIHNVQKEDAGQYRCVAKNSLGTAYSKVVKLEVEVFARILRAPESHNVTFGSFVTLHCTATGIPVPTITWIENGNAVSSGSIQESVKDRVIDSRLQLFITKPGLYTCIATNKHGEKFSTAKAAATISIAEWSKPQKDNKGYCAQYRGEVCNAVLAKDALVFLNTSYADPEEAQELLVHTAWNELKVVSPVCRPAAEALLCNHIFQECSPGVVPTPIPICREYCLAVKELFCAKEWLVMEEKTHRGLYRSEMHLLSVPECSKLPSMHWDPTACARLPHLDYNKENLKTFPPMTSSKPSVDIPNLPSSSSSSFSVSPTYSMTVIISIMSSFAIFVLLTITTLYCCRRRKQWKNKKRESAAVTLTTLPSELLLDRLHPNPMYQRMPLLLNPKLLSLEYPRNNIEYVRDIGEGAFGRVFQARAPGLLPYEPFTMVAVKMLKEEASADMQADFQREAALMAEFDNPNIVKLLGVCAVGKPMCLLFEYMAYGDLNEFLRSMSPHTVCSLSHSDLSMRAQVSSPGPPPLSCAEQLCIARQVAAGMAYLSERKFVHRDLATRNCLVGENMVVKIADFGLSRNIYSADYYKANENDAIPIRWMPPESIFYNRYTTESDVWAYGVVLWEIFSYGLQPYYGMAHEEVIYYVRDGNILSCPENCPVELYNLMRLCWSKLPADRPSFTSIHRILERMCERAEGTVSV
Procedure, shortened: as §1

ROCK-II(h) = molecular target: T6, ROCK-II(h) (Homo sapiens, UniProt O75116)
T6 construct: gene ROCK2
T6 sequence (O75116 whole entry): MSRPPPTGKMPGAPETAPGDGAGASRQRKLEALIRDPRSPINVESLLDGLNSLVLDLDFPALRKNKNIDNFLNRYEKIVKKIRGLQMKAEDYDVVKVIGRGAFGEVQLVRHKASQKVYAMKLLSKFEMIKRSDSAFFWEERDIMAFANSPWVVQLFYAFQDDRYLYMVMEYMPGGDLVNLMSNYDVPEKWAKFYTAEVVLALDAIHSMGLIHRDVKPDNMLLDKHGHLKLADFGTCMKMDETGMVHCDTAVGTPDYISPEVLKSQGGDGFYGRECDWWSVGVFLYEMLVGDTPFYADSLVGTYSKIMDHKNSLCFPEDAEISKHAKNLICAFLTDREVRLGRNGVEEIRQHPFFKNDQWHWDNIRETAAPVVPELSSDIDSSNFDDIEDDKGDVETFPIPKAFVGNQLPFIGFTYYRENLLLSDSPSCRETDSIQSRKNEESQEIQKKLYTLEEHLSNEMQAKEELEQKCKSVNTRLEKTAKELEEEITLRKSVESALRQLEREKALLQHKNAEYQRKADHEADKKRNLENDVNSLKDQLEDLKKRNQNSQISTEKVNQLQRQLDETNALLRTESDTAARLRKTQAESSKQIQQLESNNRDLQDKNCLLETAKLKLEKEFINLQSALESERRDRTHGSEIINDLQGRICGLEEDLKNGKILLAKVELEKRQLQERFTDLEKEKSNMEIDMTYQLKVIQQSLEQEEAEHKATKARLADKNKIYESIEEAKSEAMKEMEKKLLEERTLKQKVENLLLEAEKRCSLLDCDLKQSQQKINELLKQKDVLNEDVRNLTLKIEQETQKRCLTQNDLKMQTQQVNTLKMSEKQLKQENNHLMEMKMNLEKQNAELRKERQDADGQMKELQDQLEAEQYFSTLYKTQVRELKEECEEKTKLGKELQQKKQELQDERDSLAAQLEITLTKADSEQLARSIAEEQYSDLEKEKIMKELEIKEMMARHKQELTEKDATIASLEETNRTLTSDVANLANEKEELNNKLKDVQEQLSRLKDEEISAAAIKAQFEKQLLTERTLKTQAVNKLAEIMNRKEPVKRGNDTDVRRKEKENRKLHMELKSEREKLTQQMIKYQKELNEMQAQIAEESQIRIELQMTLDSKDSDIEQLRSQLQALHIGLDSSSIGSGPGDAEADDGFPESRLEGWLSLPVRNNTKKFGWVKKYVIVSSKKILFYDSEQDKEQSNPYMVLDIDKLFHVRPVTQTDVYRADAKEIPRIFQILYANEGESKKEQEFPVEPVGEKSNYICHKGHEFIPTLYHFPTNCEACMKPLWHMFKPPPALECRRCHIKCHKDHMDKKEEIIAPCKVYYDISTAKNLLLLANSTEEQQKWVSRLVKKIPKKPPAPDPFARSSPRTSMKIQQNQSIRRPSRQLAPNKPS
Procedure, shortened: as §1

[1] = read-out: Residual activity (%) 5ay
[2] = read-out: Residual activity (%) Spautin-1 5aa
[3] = read-out: Residual activity (%) 5at
[4] = read-out: Residual activity (%) 5as

SMILES: COc1ccc2ncnc(Nc3cccc(F)c3)c2c1 [5ay, N-(3-Fluorophenyl)-6-Methoxy-4-Quinazolinamine]
- remaining activity at 10 µM (B-Raf(h); [1]): 82%
- remaining activity at 10 µM (EphA2(h); [1]): 75%
- remaining activity at 10 µM (Fyn(h); [1]): 66%
- remaining activity at 10 µM (PTK5(h); [1]): 64%
- remaining activity at 10 µM (CDK7/cyclinH/MAT1(h); [1]): 58%
- remaining activity at 10 µM (RIPK1(h); [1]): 78%
- remaining activity at 10 µM (IGF-1R(h), activated; [1]): 73%
- remaining activity at 10 µM (MuSK(h); [1]): 70%
- remaining activity at 10 µM (ROCK-II(h); [1]): 84%

SMILES: Fc1ccc(CNc2ncnc3ccc(F)cc23)cc1 [5aa, 6-Fluoro-N-(4-fluorobenzyl)-4-Quinazolinamine]
- remaining activity at 10 µM (B-Raf(h); [2]): 90%
- remaining activity at 10 µM (EphA2(h); [2]): 73%
- remaining activity at 10 µM (Fyn(h); [2]): 63%
- remaining activity at 10 µM (PTK5(h); [2]): 85%
- remaining activity at 10 µM (CDK7/cyclinH/MAT1(h); [2]): 62%
- remaining activity at 10 µM (RIPK1(h); [2]): 86%
- remaining activity at 10 µM (IGF-1R(h), activated; [2]): 78%
- remaining activity at 10 µM (MuSK(h); [2]): 74%
- remaining activity at 10 µM (ROCK-II(h); [2]): 88%

SMILES: Fc1ccc2ncnc(NCCc3ccc(Cl)cc3)c2c1 [5at, N-[2-(4-Chlorophenyl)Ethyl]-6-Fluoro-4-Quinazolinamine]
- remaining activity at 10 µM (B-Raf(h); [3]): 92%
- remaining activity at 10 µM (EphA2(h); [3]): 99%
- remaining activity at 10 µM (Fyn(h); [3]): 75%
- remaining activity at 10 µM (PTK5(h); [3]): 95%
- remaining activity at 10 µM (CDK7/cyclinH/MAT1(h); [3]): 59%
- remaining activity at 10 µM (RIPK1(h); [3]): 80%
- remaining activity at 10 µM (IGF-1R(h), activated; [3]): 76%
- remaining activity at 10 µM (MuSK(h); [3]): 97%
- remaining activity at 10 µM (ROCK-II(h); [3]): 79%

SMILES: Fc1ccc(CCNc2ncnc3ccc(F)cc23)cc1 [5as, 6-Fluoro-N-[2-(4-Fluorophenyl)Ethyl]-4-Quinazolinamine]
- remaining activity at 10 µM (B-Raf(h); [4]): 83%
- remaining activity at 10 µM (EphA2(h); [4]): 90%
- remaining activity at 10 µM (Fyn(h); [4]): 61%
- remaining activity at 10 µM (PTK5(h); [4]): 84%
- remaining activity at 10 µM (CDK7/cyclinH/MAT1(h); [4]): 49%
- remaining activity at 10 µM (RIPK1(h); [4]): 73%
- remaining activity at 10 µM (IGF-1R(h), activated; [4]): 72%
- remaining activity at 10 µM (MuSK(h); [4]): 81%
- remaining activity at 10 µM (ROCK-II(h); [4]): 81%
